Source: ChEMBL document CHEMBL1146594, “The leupyrrins: a structurally unique family of secondary metabolites from the myxobacterium Sorangium cellulosum” (J Nat Prod, 2003)
In brackets after ≈: the same amount, converted by molar mass. Activity calls are given as the source filed them. The calls are words filed in the database; no cut-off is given here.

Experiments:
[1] = tested on: Aspergillus niger; assay: Antifungal activity against Aspergillus niger; type: functional
[2] = tested on: Rhodotorula glutinis; assay: Antifungal activity against Rhodotorula glutinis; type: functional
[3] = tested on: Candida albicans; assay: Antifungal activity against Candida albicans; type: functional
[4] = tested on: Botrytis cinerea; assay: Antifungal activity against Botrytis cinerea; type: functional
[5] = tested on: L929; assay: Cytotoxicity against mouse L929 cells; type: cell-based
[6] = tested on: Rhodotorula glutinis; assay: Inhibition of protein synthesis in Rhodotorula glutinis assessed as inhibition of [U-14C]protein hydrolysate incorporation at 2.5 ug/mL after 30 mins; type: functional, organism-based
[7] = tested on: Rhodotorula glutinis; assay: Inhibition of DNA synthesis in Rhodotorula glutinis assessed as inhibition of [methyl-3H]thymine incorporation at 2.5 ug/mL after 30 mins; type: functional, organism-based
[8] = tested on: Rhodotorula glutinis; assay: Inhibition of RNA synthesis in Rhodotorula glutinis assessed as inhibition of [2-14C]uracil incorporation at 2.5 ug/mL after 30 mins; type: functional, organism-based
[9] = tested on: Mucor hiemalis; assay: Antifungal activity against Mucor hiemalis; type: functional

SMILES: COCCC/C(C)=C1\COC(CC(C)C)\C1=C/C1N=C2OC1COC(=O)[C@@H](CC(C)C)CC(=O)OC1C(OC(=O)C1(C)CO)/C(C)=C/Cc1ccc2[nH]1 (some centres undefined) [LEUPYRRIN A1]
- MIC [1]: 0.8 µg/mL (≈ 1.08 µM)
- MIC [2]: 0.25 µg/mL (≈ 0.338 µM)
- MIC [3]: > 25 µg/mL
- MIC [4]: 0.8 µg/mL (≈ 1.08 µM)
- IC50 [5]: 1 µg/mL (≈ 1.35 µM)
- Activity [6]: Active
- Activity [7]: Active
- Activity [8]: Active
- MIC [9]: 0.3 µg/mL (≈ 0.406 µM)
